In BindingDB's records for doi:10.1021/acs.jmedchem.6b01785 (Chinese Academy of Sciences, 2017):

Experiments:
[1] = Inhibition of DOT1L in human MV4-11 cells assessed as reduction in cell viability after 72 hrs by alamar blue assay
[2] = Inhibition of DOT1L in human KOPN8 cells assessed as reduction in cell viability after 72 hrs by alamar blue assay
[3] = Inhibition of DOT1L in human THP-1 cells assessed as reduction in cell viability after 72 hrs by alamar blue assay

Row | Compound | IC50 [1] [µM] | IC50 [2] [µM] | IC50 [3] [µM]
1 | c1ccc2c(c1)nnn2Cc1nnc2sc(-c3ccc4c(c3)OCCO4)nn12 [1-{[6-(2,3-dihydro-1,4-benzodioxin-6-yl)[1,2,4]triazolo[3,4-b][1,3,4]thiadiazol-3-yl]methyl}-1H-1,2,3-benzotriazole] | 40.7 |  | 
2 | COc1cccc(-c2nn3c(Cn4nnc5ccccc54)nnc3s2)c1 | 64.2 |  | 
3 | CC(C)(C)c1ccc(-c2nn3c(Cn4nnc5ccccc54)nnc3s2)cc1 | 13.1 |  | 
4 | Brc1cccc(-c2nn3c(Cn4cnc5ccccc54)nnc3s2)c1 | 26.8 |  | 
5 | Fc1cccc(-c2nn3c(Cn4nnc5ccccc54)nnc3s2)c1 | 21.9 | 28.1 | 55.8
6 | Fc1ccc(-c2nn3c(Cn4nnc5ccccc54)nnc3s2)cc1 | 8 |  | 
7 | c1ccc2c(c1)nnn2Cc1nnc2sc(-c3ccc4c(c3)OCO4)nn12 | 6.75 |  | 
8 | Cc1ccc(-c2nn3c(Cn4cnc5ccccc54)nnc3s2)cc1C | 64 |  | 
9 | c1ccc(Cc2nn3c(Cn4nnc5ccccc54)nnc3s2)cc1 [3-(1-benzotriazolylmethyl)-6-(phenylmethyl)-[1,2,4]triazolo[3,4-b][1,3,4]thiadiazole] | 48.8 |  | 
